24 compounds from patent US20260184712A1, “Heterocyclic Compounds as ENT Inhibitors and Compounds for Use in the Treatment of Cancers” (iTeos Belgium SA, priority 2022, published 2026) can be followed below.

The target in one assay is T1, human ENT1 (Homo sapiens, UniProt Q99808).
T1 construct: JAR cells expressing ENT1 were purchased from ATCC; host or cells: JAR cells
T1 sequence (Q99808 1-456): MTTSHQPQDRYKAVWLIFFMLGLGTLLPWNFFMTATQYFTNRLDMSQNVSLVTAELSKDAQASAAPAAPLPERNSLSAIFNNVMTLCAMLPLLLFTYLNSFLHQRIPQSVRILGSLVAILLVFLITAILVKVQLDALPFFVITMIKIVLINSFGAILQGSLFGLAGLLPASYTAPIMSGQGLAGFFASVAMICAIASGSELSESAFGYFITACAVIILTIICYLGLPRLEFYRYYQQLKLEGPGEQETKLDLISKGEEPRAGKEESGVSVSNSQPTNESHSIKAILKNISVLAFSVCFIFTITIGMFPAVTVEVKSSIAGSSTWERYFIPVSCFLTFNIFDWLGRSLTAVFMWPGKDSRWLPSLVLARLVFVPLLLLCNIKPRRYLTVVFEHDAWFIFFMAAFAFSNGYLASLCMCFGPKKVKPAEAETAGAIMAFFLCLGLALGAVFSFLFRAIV
Briefly: ENT1 binding assay (competition with Sahenta-DY647 on JAR cells). Conditions: competition with SAHENTA-DY647 binding; IC50 categorized; read-out: Binding Assay IC50. The essentials: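 Whole-cell competition on JAR cells (native ENT1): 50,000 cells pre-incubated 30 min at 4 °C with compound in HBSS/10 mM Hepes/0.1% BSA, then 100 nM Sahenta-DY647 added for 30 min at 4 °C. After washing, fluorescence (Ex 630/Em 670 nm) read; IC50 from sigmoidal fit, averaged as pIC50.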

The subject of assay [1] is stimulated primary human T cells. Briefly: T cell proliferation assay, Condition A (X-VIVO15). The class given is cell-based. Conditions: Homo sapiens, T-cell, 96 h; Condition A: X-VIVO15 medium; anti-CD3/anti-CD28 beads, ATP, 4 days; CFSE-lo T cells. Here is the method:
(§1) The goal of this study was to determine the potency of ENT1 inhibitors by measuring the rescued proliferation of stimulated primary human T cells incubated in the presence of 100 uM Adenosine triphosphate (ATP), in baseline conditions (condition A) or in the presence of various proteins known to bind small molecules (condition B).
(§2) Venous blood from healthy volunteers, all of whom signed an informed consent approved by the Ethics Committee (FOR—UIC—BV-050-01-01 ICF_HBS_HD Version 5.0), was obtained by ImmuneHealth (Centre Hospitalier Universitaire Tivoli, La Louviere, Belgium). Mononuclear cells were collected by density gradient centrifugation, using SepMate-50 tubes (StemCell Technologies, Grenoble, France) and Lymphoprep (Stemcell Technologies) according to the manufacturer's instructions. CD3+ T cells were isolated by immunomagnetic negative selection, using the EasySep Human T Cell Isolation Kit (StemCell Technologies) as per the manufacturer's instructions. CD3+ T cells were stored in heat inactivated FBS (hiFBS; Gibco, ThermoFisher Scientific, Merelbeke, Belgium) and 10% DMSO in liquid nitrogen.
(§3) Purified human CD3+ T cells were thawed and washed once with RPMI1640 medium, UltraGlutamine (Lonza, Verviers, Belgium) containing 10% hiFBS. Cells were resuspended in PBS containing 10% hiFBS at 1×10^7 cells/ml. One volume of cells was combined with a matching volume of 2 μM CFSE solution in PBS, mixed well by pipetting, and incubated at room temperature for 5 minutes under rotation and protected from light. Excess CFSE was quenched by addition of PBS containing 10% hiFBS, and the cells were centrifuged (300×rcf, 7 minutes) and resuspended in X-VIVO15. Cells were again centrifuged and resuspended in X-VIVO15 for counting.
(§4) Cells were resuspended at 1.6×10^6 cells/mL in X-VIVO15 medium (Condition A) or X-VIVO15 medium containing 4% (v/v) HSA (Sigma-Aldrich, Diegem, Belgium) and 0.2% (v/v) ai-Acid Glycoprotein (Sigma-Aldrich, Diegem, Belgium) (Condition B).
(§5) […] of cell suspension (2×10^4 cells) was added to wells of sterile flat-bottom 384-well plates. Cells were activated by adding […] of anti-CD3 anti-CD28 coated microbeads (Dynabeads human T-activator CD3/CD28; Life Technologies, Paisley, UK) suspended in X-VIVO15 medium or X-VIVO15 medium containing 4% (v/v) HSA and 0.2% (v/v) ai-Acid Glycoprotein at a ratio of one microbead per two cells. Serial dilutions of the ENT1 inhibitors were conducted in X-VIVO15 medium and […] of the diluent was added to the wells. Cells were mixed by pipetting up and down and pre-incubated for 30 minutes in a 37° C. humidified tissue culture incubator with 5% CO2. After pre-incubation, cells were cultured in the presence or absence of ATP (Sigma-Aldrich) at a final concentration of […]. The final well volume was 50 μl in all cases. Experiments were performed in biological duplicates. Cells were mixed by pipetting up and down and incubated for 4 days in a 37° C. humidified tissue culture incubator with 5% CO2.
(§6) Samples were run on a BD LSR Fortessa FACS machine (BD FACSDiva Software v9.0.1). Data were analyzed using FlowJo (BD, v10.7.1). T cell proliferation was determined by measuring the frequency of ‘CFSE^lo’ (i.e. CFSE-diluted).
(§7) T cell proliferation data were analyzed using FlowJo software (Version 10.6.2). Dead cells and cellular debris were excluded on the basis of forward and side scatter profile and singlet cells were selected for further analysis.
(§8) T cell proliferation was determined based on the percent CFSE^lo total T cells for each condition. The data were plotted on the y-axis against log molar (M) concentration of ENT1 inhibitors on the x-axis in GraphPad Prism (version 9.0.0). IC50 and IC90 values were generated with the ‘log(agonist) vs. response—Find ECanything(F))’ function with F constrained to 50 or 90, respectively. pICF values were generated by taking the −logECF values.

The test system is the same in assay [2]. Nature of the assay: T cell proliferation assay, Condition B (X-VIVO15, 2% HSA and 0.1% AAG). Format: cell-based. Conditions: Homo sapiens, T-cell, 96 h; Condition B: X-VIVO15 medium containing HSA and α1-Acid Glycoprotein; anti-CD3/anti-CD28 beads, ATP, 4 days; CFSE-lo T cells. As for the experimental part:
as §1
Condition B: X-VIVO15, 2% Human Serum Albumin (HSA) and 0.1% α-1-Acid Glycoprotein (AAG)
as §2, §3, §4, §5, §6, §7, §8

The structures appear in SMILES notation.

For `Cc1cc(COc2ncnc3c2ncn3[C@@H]2O[C@H](C)[C@@H](O)[C@H]2O)ccc1[N+](=O)[O-]` [Compound 193], the IC50 (in general, the concentration at which inhibition is half-maximal) was 20 to 500 nM on human ENT1, 20 to 500 nM in assay [1] and greater than 500 nM in assay [2].
As to `C[C@H]1O[C@@H](n2c(NCCCO)nc3c(OCc4ccc(OC(F)F)cc4)ncnc32)[C@H](O)[C@@H]1O` [Compound 44], the figures for the IC50 (at human ENT1; in assay [1]; in assay [2]) were 1 to 20 nM, 1 to 20 nM and 20 to 500 nM, respectively.
With `OC[C@H]1O[C@@H](n2c(NC3CCCC3)nc3c(SCc4ccccc4)ncnc32)[C@H](O)[C@@H]1O` [Compound 158], the results for the 50% inhibitory concentration (IC50) (at human ENT1; in assay [1]; in assay [2]) were 1 to 20 nM, 1 to 20 nM and 20 to 500 nM, respectively.
In the case of `CCNc1nc2c(OCc3ccc([N+](=O)[O-])cc3)ncnc2n1[C@@H]1O[C@H](C)[C@@H](O)[C@H]1O` [Compound 20], the IC50 on human ENT1 was 1 to 20 nM; in assay [1], less than 1 nM; in assay [2] it was 20 to 500 nM.
The corresponding values for `CC(=O)N1CCC(Nc2nc3c(OCc4ccc(OC(F)F)cc4)ncnc3n2[C@@H]2O[C@H](C)[C@@H](O)[C@H]2O)CC1` [Compound 79] are less than 1 nM, less than 1 nM and 1 to 20 nM.
In the case of `C[C@H]1O[C@@H](n2c(N[C@@H]3CCC(F)(F)C3)nc3c(OCc4ccc(C#N)cc4)ncnc32)[C@H](O)[C@@H]1O` [Compound 81], the half-maximal inhibitory concentration (IC50) is less than 1 nM on human ENT1, less than 1 nM in assay [1] and 20 to 500 nM in assay [2].
In the case of `C[C@H]1O[C@@H](n2c(NC3CCS(=O)(=O)CC3)nc3c(OCc4ccc(C#N)cc4)ncnc32)[C@H](O)[C@@H]1O` [Compound 54], the IC50 is less than 1 nM at human ENT1, less than 1 nM in assay [1] and 20 to 500 nM in assay [2].
With `OCCOC[C@H]1O[C@@H](n2cnc3c(OCc4ccc(OC(F)F)cc4)nc(Cl)nc32)[C@H](O)[C@@H]1O` [Compound 162], the IC50 was in the range of 1 to 20 nM on human ENT1, 1 to 20 nM in assay [1] and 20 to 500 nM in assay [2].
For `CC(=O)NC[C@H]1O[C@@H](n2cnc3c(SCc4ccc([N+](=O)[O-])cc4)ncnc32)[C@H](O)[C@@H]1O` [Compound 189], the IC50 at human ENT1 is 20 to 500 nM; in assay [1] it was 1 to 20 nM; in assay [2], greater than 500 nM.
On to `O=[N+]([O-])c1ccc(CCOc2ncnc3c2ncn3[C@@H]2O[C@H](COCCO)[C@@H](O)[C@H]2O)cc1` [Compound 203], for which the IC50 at human ENT1 was 20 to 500 nM; in assay [1], 1 to 20 nM; in assay [2] it was greater than 500 nM.
For `CC(C)Nc1nc2c(N3CCc4ccc(C#N)cc4C3)ncnc2n1[C@@H]1O[C@H](C)[C@@H](O)[C@H]1O` [Compound 154], the IC50 was 1 to 20 nM on human ENT1, 1 to 20 nM in assay [1] and greater than 500 nM in assay [2].
Turning to `C[C@H]1O[C@@H](n2c(NC3CC(F)(F)C3)nc3c(OCc4ccc(C#N)cc4)ncnc32)[C@H](O)[C@@H]1O` [Compound 49], the IC50 is 1 to 20 nM on human ENT1, greater than 500 nM in assay [1] and 20 to 500 nM in assay [2].
For `C[C@H]1O[C@@H](n2c(NC3CCCC3)nc3c(N4CCc5ccc(C#N)cc5C4)ncnc32)[C@H](O)[C@@H]1O` [Compound 153], the IC50 on human ENT1 is 1 to 20 nM; in assay [1] it was less than 1 nM; in assay [2] it was 20 to 500 nM.
On to `C[C@H]1O[C@@H](n2c(NC3CCS(=O)(=O)CC3)nc3c(OCc4ccc([N+](=O)[O-])cc4)ncnc32)[C@H](O)[C@@H]1O` [Compound 31], for which the figures for the IC50 (at human ENT1; in assay [1]; in assay [2]) were less than 1 nM, less than 1 nM and 1 to 20 nM, respectively.
Take `C[C@H]1O[C@@H](n2cnc3c(OCc4ccc(OC(F)F)cc4)nc(Cl)nc32)[C@H](O)[C@@H]1O` [Compound 161]: the IC50 at human ENT1 was in the range of 1 to 20 nM; in assay [1] it was 1 to 20 nM; in assay [2] it was 20 to 500 nM.
For the compound `C[C@H]1O[C@@H](n2c(N)nc3c(N4CCc5ccc([N+](=O)[O-])cc5C4)ncnc32)[C@H](O)[C@@H]1O` [Compound 145], the IC50 at human ENT1 was less than 1 nM; in assay [1], 1 to 20 nM; in assay [2] it was 20 to 500 nM.
For `COCCNc1nc2c(OCc3ccc([N+](=O)[O-])cc3)ncnc2n1[C@@H]1O[C@H](C)[C@@H](O)[C@H]1O` [Compound 23], the values for the IC50 (on human ENT1; in assay [1]; in assay [2]) were 1 to 20 nM, less than 1 nM and 20 to 500 nM, respectively.
For the compound `C[C@H]1O[C@@H](n2c(Nc3cnn(C)c3)nc3c(OCc4ccc([N+](=O)[O-])cc4)ncnc32)[C@H](O)[C@@H]1O` [Compound 17], the IC50 was in the range of 1 to 20 nM on human ENT1, 1 to 20 nM in assay [1] and 20 to 500 nM in assay [2].
`C[C@H]1O[C@@H](n2c(NC3CCC(F)(F)CC3)nc3c(OCc4ccc([N+](=O)[O-])cc4)ncnc32)[C@H](O)[C@@H]1O` [Compound 10]: the IC50 on human ENT1 is 1 to 20 nM; in assay [1], less than 1 nM; in assay [2] it was 1 to 20 nM.
With `C[C@H]1O[C@@H](n2cnc3c(OCc4cc(F)c(F)c(F)c4)ncnc32)[C@H](O)[C@@H]1O` [Compound 200], the IC50 on human ENT1 is 20 to 500 nM; in assay [1], 1 to 20 nM; in assay [2], greater than 500 nM.
In the case of `C[C@H]1O[C@@H](n2cnc3c(OCc4ccc(OC(F)F)cc4)nc(N)nc32)[C@H](O)[C@@H]1O` [Compound 190], the figures for the IC50 (on human ENT1; in assay [1]; in assay [2]) were 20 to 500 nM, 1 to 20 nM and greater than 500 nM, respectively.
As to `C[C@H]1O[C@@H](n2c(NC3CCC(F)(F)C3)nc3c(OCc4ccc([N+](=O)[O-])cc4)ncnc32)[C@H](O)[C@@H]1O` (stereo partly drawn) [Compound 9], the results for the IC50 (on human ENT1; in assay [1]; in assay [2]) were less than 1 nM, less than 1 nM and 1 to 20 nM, respectively.
For the compound `C[C@H]1O[C@@H](n2c(NC3CCC(O)CC3)nc3c(OCc4ccc(OC(F)F)cc4)ncnc32)[C@H](O)[C@@H]1O` (stereo partly drawn) [Compound 53], the IC50 at human ENT1 was less than 1 nM; in assay [1], less than 1 nM; in assay [2], 1 to 20 nM.
With `C[C@H]1O[C@@H](n2c(NCc3cnn(C)c3)nc3c(OCc4ccc(C#N)cc4)ncnc32)[C@H](O)[C@@H]1O` [Compound 65], the figures for the IC50 (on human ENT1; in assay [1]; in assay [2]) were 1 to 20 nM, 1 to 20 nM and 20 to 500 nM, respectively.
